In ChEMBL document CHEMBL5247633, “Discovery of novel analogs of KHS101 as transforming acidic coiled coil containing protein 3 (TACC3) inhibitors for the treatment of glioblastoma” (Eur J Med Chem, 2022):
Activity calls are given as the source filed them. The calls are words filed in the database; no cut-off is given here.

How the values were obtained:
[1] = Cytotoxicity against human U251 cells assessed as inhibition of cell growth measured after 72 hrs by MTT assay; assay type: toxicity, cell-based, U-251
[2] = Antiproliferative activity against human U87 cells assessed as inhibition of cell growth incubated for 72 hrs by MTT assay; assay type: functional, cell-based, U-87MG ATCC; details: U-87 MG
[3] = tested on: SK-OV-3; experiment: Antiproliferative activity against human SK-OV-3 cells assessed as cell growth inhibition measured after 72 hrs by MTT assay; assay type: functional, cell-based; details: SK-OV-3, 72 h
[4] = tested on: JIMT-1; experiment: Antiproliferative activity against human JIMT-1 cells assessed as cell growth inhibition measured after 72 hrs by MTT assay; assay type: functional, cell-based; details: JIMT-1, 72 h
[5] = tested on: MDA-MB-231; experiment: Antiproliferative activity against human MDA-MB-231 cells assessed as cell growth inhibition measured after 72 hrs by MTT assay; assay type: functional, cell-based; details: MDA-MB-231, 72 h
[6] = Antiproliferative activity against human HLF1 cells assessed as cell growth inhibition measured after 72 hrs by MTT assay; assay type: functional, cell-based; details: HLF1, 72 h
[7] = Cytotoxicity against human U87 cells assessed as reduction in cell viability measured after 24 hrs by MTT assay; assay type: toxicity, cell-based, U-87MG ATCC
[8] = tested on: U-87MG ATCC; experiment: Induction of ROS generation in human U87 cells at incubated for 36 hrs by DCF-DA based flow cytometry analysis; assay type: functional, cell-based; details: dose 1-4 µM
[9] = Inhibition of cell invasion in human U87 cells assessed as reduction in number of cells invaded at 1 uM incubated for 24 hrs by matrigel-coated transwell assay (reference value: 154.3%); assay type: functional, U-87MG ATCC
[10] = Induction of cell cycle arrest in human U87 cells assessed as increase in accumulation at G2/M phase at 4 uM after 36 hrs by propidium iodide staining based flow cytometric analysis relative to control (reference value: 15.3 %); assay type: functional, U-87MG ATCC
[11] = Inhibition of cell invasion in human U87 cells assessed as reduction in number of cells invaded at 2 uM incubated for 24 hrs by matrigel-coated transwell assay (reference value: 154.3%); assay type: functional, U-87MG ATCC
[12] = tested on: U-87MG ATCC; experiment: Antitumor activity against human U87 cells xenografted in BALB/c mouse model assessed as decrease in Ki67 positive cells at 20 mg/kg, iv; assay type: functional, organism-based
[13] = tested on: U-87MG ATCC; experiment: Antitumor activity against human U87 cells xenografted in BALB/c mouse model assessed as tumor growth regression at 20 mg/kg, iv measured on day 20; assay type: functional, organism-based
[14] = Induction of ROS generation in human U87 cells at 4 uM incubated for 36 hrs by DCF-DA based flow cytometry analysis relative to control (Rvb= 4.01 %); assay type: functional, U-87MG ATCC
[15] = Antitumor activity against human U87 cells xenografted in BALB/c mouse model assessed as reduction in tumor weight at 20 mg/kg, iv measured on day 20; assay type: functional, U-87MG ATCC; design: scale not given: the % may be the effect or the level left
[16] = biological target: Transforming acidic coiled-coil-containing protein 3 (Homo sapiens) (UniProt Q9Y6A5); experiment: Inhibition of TACC3 in human U87 cells assessed as stabilization of protein by measuring shift in thermal melting curve at 10 uM in presence of pronase incubated for 6 hrs by cellular thermal shift assay; assay type: cell-based
[17] = Inhibition of cell invasion in human U87 cells assessed as reduction in number of cells invaded at 4 uM incubated for 24 hrs by matrigel-coated transwell assay (reference value: 154.3%); assay type: functional, U-87MG ATCC
[18] = tested on: U-87MG ATCC; experiment: Inhibition of cell migration in human U87 cells assessed as reduction in cell migration incubated for 24 hrs by wound healing assay; assay type: functional, cell-based
[19] = tested on: U-87MG ATCC; experiment: Antitumor activity against human U87 cells xenografted in BALB/c mouse model assessed as increase in apoptotic cells at 20 mg/kg, iv by TUNEL assay; assay type: functional, organism-based
[20] = Induction of cell cycle arrest in human U87 cells assessed as decrease in accumulation at G1 phase at 4 uM after 36 hrs by propidium iodide staining based flow cytometric analysis relative to control (reference value: 51.7 %); assay type: functional, U-87MG ATCC; design: scale not given: the % may be the effect or the level left
[21] = Induction of apoptosis in human U87 cells assessed as early apoptosis at 4 uM incubated for 36 hrs by AnnexinV/propidium iodide staining based flow cytometry method relative to control (reference value: 4.49 %); assay type: functional, U-87MG ATCC
[22] = tested on: U-87MG ATCC; experiment: Antiproliferative activity against shRNA mediated TACC3 knockdown human U87 cells assessed as reduction in cell viability; assay type: functional, cell-based
[23] = Induction of cell cycle arrest in shRNA induced in human U87 cells assessed as accumulation at G2/M phase at 1 to 4 uM by propidium iodide staining based flow cytometric analysis relative to control (reference value: 14.95 %); assay type: functional, U-87MG ATCC; details: dose 1-4 µM
[24] = tested on: U-87MG ATCC; experiment: Induction of apoptosis in human U87 cells by AnnexinV/PI staining assay; assay type: functional, cell-based; details: dose 1-4 µM
[25] = Induction of mitochondrial membrane potential loss in human U87 cells assessed as increase in green fluorescence intensity at 0 to 4 uM incubated for 36 hrs by JC-1 staining based flow cytometry relative to control (reference value: 9.34 %); assay type: functional, U-87MG ATCC; details: dose 0-4 µM
[26] = Stability in human plasma assessed as half life; assay type: ADME, cell-free
[27] = biological target: Transforming acidic coiled-coil-containing protein 3 (Homo sapiens) (UniProt Q9Y6A5); experiment: Inhibition of TACC3 in human U87 cells assessed as stabilization of protein by measuring shift in thermal melting curve at 10 uM incubated for 6 hrs by cellular thermal shift assay; assay type: cell-based
[28] = Stability in mouse plasma assessed as half life; assay type: ADME, cell-free
[29] = tested on: U-87MG ATCC; experiment: Induction of apoptosis in human U87 cells assessed as increase in number of apoptotic cells by Hoechst 33258 staining method; assay type: functional, cell-based
[30] = Induction of apoptosis in human U87 cells assessed as late apoptosis at 4 uM incubated for 36 hrs by AnnexinV/propidium iodide staining based flow cytometry method relative to control (reference value: 0.52 %); assay type: functional, U-87MG ATCC
[31] = Toxicity in BALB/c mouse transplanted with human U87 cells assessed as effect in body weight at 20 mg/kg, iv; assay type: organism-based, U-87MG ATCC; details: in vivo
[32] = tested on: U-87MG ATCC; experiment: Induction of cell cycle arrest in human U87 cells assessed as increase in accumulation at G2/M phase at 2 uM after 24 hrs by propidium iodide staining based flow cytometric analysis; assay type: functional

CC(C)CNc1ccnc(NC(=O)c2csc(-c3ccccc3)n2)n1
IC50 at 72 h [1]: 92.1 µM
IC50 [2]: 59.1 µM
IC50 [3]: 83.5 µM
IC50 [4]: > 100 µM
IC50 [5]: > 100 µM

CCCN(CCC)c1ccnc(NCc2csc(-c3ccccc3)n2)n1
IC50 at 72 h [1]: 16.2 µM
IC50 [2]: 16.4 µM
IC50 [3]: 22.2 µM
IC50 [4]: 16.9 µM
IC50 [5]: 23.2 µM
IC50 [6]: 46.9 µM

CC(C)CNc1ccnc(NCc2csc(-c3ccccc3)n2)n1
IC50 at 72 h [1]: 49.1 µM
IC50 [2]: 37.9 µM
IC50 [3]: 21.4 µM
IC50 [4]: 33 µM
IC50 [5]: 31.1 µM
IC50 [6]: 89.4 µM

c1ccc(-c2nc(CNc3nccc(NC4CCCCC4)n3)cs2)cc1
IC50 at 72 h [1]: 10.8 µM
IC50 [2]: 11.6 µM
IC50 [3]: 12.5 µM
IC50 [4]: 19.4 µM
IC50 [5]: 18.4 µM
IC50 [6]: 28.2 µM

CC(C)CNc1ccnc(NCc2csc(-c3ccccc3)c2)n1
IC50 at 72 h [1]: 25.8 µM
IC50 [2]: 30.7 µM
IC50 [3]: 26.2 µM
IC50 [4]: 42.2 µM
IC50 [5]: 27.4 µM
IC50 [6]: 61.2 µM

c1ccc(-c2nc(CNc3nccc(N4CCC4)n3)cs2)cc1
IC50 at 72 h [1]: 29.2 µM
IC50 [2]: 21.5 µM
IC50 [3]: 33.3 µM
IC50 [4]: 25.7 µM
IC50 [5]: 27.7 µM
IC50 [6]: 91.1 µM

CC(C)CNc1ccnc(NCc2csc(-c3ccc(C(F)(F)F)cc3)n2)n1
IC50 at 72 h [1]: 29.8 µM
IC50 [2]: 20.1 µM
IC50 [3]: 39 µM
IC50 [4]: 38 µM
IC50 [5]: 33 µM
IC50 [6]: 65.3 µM

OC1CC2CC1CN2c1ccnc(NCc2csc(-c3ccccc3)n2)n1 (stereo not drawn)
IC50 at 24 h [7]: 27.5 µM
Activity [8]: Dose-Dependent Effect
Activity [9]: 119.7
Activity [10]: 41.2%
IC50 at 72 h [1]: 5.61 µM
Activity [11]: 73
Activity [12]: Active
IC50 [2]: 3.29 µM
Activity [13]: Active
IC50 [3]: 8.21 µM
Activity [14]: 54.28%
Activity [15]: 72.7%
inhibition [16]: Active
Activity [17]: 42.3
inhibition [18]: Active
Activity [19]: Active
Activity [20]: 74.6%
Activity [21]: 21.42%
Activity [22]: Active
Activity [23]: 21.31%
Activity [24]: Dose-Dependent Effect
Activity [25]: 48.58%
IC50 [4]: 4.84 µM
half-life [26]: 252 min
inhibition [27]: Active
half-life [28]: 126 min
Activity [29]: Active
IC50 [5]: 6.46 µM
IC50 [6]: 23.1 µM
Activity [30]: 26.72%
Activity [31]: Non-Toxic
Activity [32]: Active

c1ccc(-c2nc(CNc3ncccn3)cs2)cc1
IC50 at 72 h [1]: > 100 µM
IC50 [2]: > 100 µM

c1ccc(-c2nc(CNc3nccc(NC4CC4)n3)cs2)cc1
IC50 at 72 h [1]: 59.5 µM
IC50 [2]: 72.3 µM
IC50 [3]: 52.5 µM
IC50 [4]: 68.8 µM
IC50 [5]: > 100 µM
IC50 [6]: > 100 µM

c1ccc(-c2nc(CNc3nccc(N4CCCC4)n3)cs2)cc1
IC50 at 72 h [1]: 17.4 µM
IC50 [2]: 26.2 µM
IC50 [3]: 20.2 µM
IC50 [4]: 29.6 µM
IC50 [5]: 18.3 µM
IC50 [6]: 61.8 µM

COc1cccc2c1C(=O)c1c(O)c3c(c(O)c1C2=O)C[C@@](O)(C(=O)CO)C[C@@H]3O[C@H]1C[C@H](N)[C@H](O)[C@H](C)O1 [DOXORUBICIN]
IC50 at 72 h [1]: 0.45 µM
IC50 [2]: 0.25 µM
IC50 [3]: 0.19 µM
IC50 [4]: 0.37 µM
IC50 [5]: 0.32 µM
IC50 [6]: 0.23 µM

CCCCN(CCCC)c1ccnc(NCc2csc(-c3ccccc3)n2)n1
IC50 at 72 h [1]: 14.2 µM
IC50 [2]: 14.8 µM
IC50 [3]: 21.3 µM
IC50 [4]: 13.2 µM
IC50 [5]: 21.7 µM
IC50 [6]: 35.4 µM

c1ccc(-c2nc(CNc3nccc(N4CCCCC4)n3)cs2)cc1
IC50 at 72 h [1]: 12.3 µM
IC50 [2]: 8.39 µM
IC50 [3]: 21.4 µM
IC50 [4]: 21.9 µM
IC50 [5]: 14.6 µM
IC50 [6]: 48.3 µM

CC(C)CNc1cccc(NCc2csc(-c3ccccc3)n2)c1
IC50 at 72 h [1]: > 100 µM
IC50 [2]: > 100 µM

CC(C)CNc1ccnc(NCc2csc(-c3ccc(Cl)cc3)n2)n1
IC50 at 72 h [1]: 18.5 µM
IC50 [2]: 16.6 µM
IC50 [3]: 34.1 µM
IC50 [4]: 26.9 µM
IC50 [5]: 18.3 µM
IC50 [6]: 56.3 µM
